The text below walks through data of PubChem BioAssay AID256 (DTP/NCI, 2004).

Several values for one entry are separate records, joined by “and”; a condition that tells them apart may be missing. Equal values may be shown once. Inconclusive results and toxic doses are left out.

The test system of this experiment is CD2F1 mice, L1210 leukemia ip, survival T/C. As to the kind of experiment: NCI In Vivo Anticancer Drug Screen. Data for tumor model L1210 Leukemia (intraperitoneal) in CD2F1 (CDF1) mice. Particulars: higher = longer survival. The gist of the method:
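Ratio T/C, where T is the treated-group value and C the vehicle-dosed control value, from mice implanted with a transplantable tumor.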

[1] abbreviates: endpoint: mean survival time, dose: 100.0 mg/kg/injection, schedule: Q04DX003 (ip), vehicle: saline with Tween-80.
Setting [2] is: endpoint: mean survival time, dose: 200.0 mg/kg/injection, schedule: Q04DX003 (ip), vehicle: saline with Tween-80.
Setting [3] is: endpoint: mean survival time, dose: 400.0 mg/kg/injection, schedule: Q04DX003 (ip), vehicle: saline with Tween-80.
Where [4] appears, read: endpoint: mean survival time, dose: 25.0 mg/kg/injection, schedule: Q01DX009 (ip), vehicle: water.
[5] abbreviates: endpoint: mean survival time, dose: 50.0 mg/kg/injection, schedule: Q01DX009 (ip), vehicle: water.
The mark [6] stands for this setting: endpoint: mean survival time, dose: 100.0 mg/kg/injection, schedule: Q01DX009 (ip), vehicle: water.
Setting [7] is: endpoint: mean survival time, dose: 100.0 mg/kg/injection, schedule: Q01DX009 (ip), vehicle: saline with Tween-80.
[8] abbreviates: endpoint: mean survival time, dose: 200.0 mg/kg/injection, schedule: Q01DX009 (ip), vehicle: saline with Tween-80.
The mark [9] stands for this setting: endpoint: mean survival time, dose: 400.0 mg/kg/injection, schedule: Q01DX009 (ip), vehicle: saline with Tween-80.

Regarding `C=CN1CCCC1=O`, the T/C is 98 % of control under setting [1]; 101 % of control under setting [2]; 95 % of control under setting [3]; 101 % of control (endpoint: mean survival time, dose: 1400.0 mg/kg/injection, schedule: Q01DX001 (ip), vehicle: saline); 110 % of control (endpoint: mean survival time, dose: 1600.0 mg/kg/injection, schedule: Q01DX001 (ip), vehicle: saline); 117 % of control (endpoint: mean survival time, dose: 1800.0 mg/kg/injection, schedule: Q01DX001 (ip), vehicle: saline). Further, the T/C by setting is: (endpoint: mean survival time, dose: 2000.0 mg/kg/injection, schedule: Q01DX001 (ip), vehicle: saline) 114 % of control; (endpoint: median survival time, dose: 1.9 grams/kg/injection, schedule: Q01DX001 (iv), vehicle: saline) 100 % of control; (endpoint: median survival time, dose: 1.9 grams/kg/injection, schedule: Q01DX005 (iv), vehicle: saline) 112 % of control; (endpoint: median survival time, dose: 1.9 grams/kg/injection, schedule: Q03HX008 (ip), vehicle: saline) 112 % of control; (endpoint: median survival time, dose: 1.9 grams/kg/injection, schedule: Q03HX016 (ip), vehicle: saline) 106 % of control; (endpoint: median survival time, dose: 1.9 grams/kg/injection, schedule: Q03HX024 (ip), vehicle: saline) 112 % of control. The T/C runs as follows: (endpoint: median survival time, dose: 1.9 grams/kg/injection, schedule: Q04DX003 (iv), vehicle: saline) 112 % of control; (endpoint: median survival time, dose: 3.8 grams/kg/injection, schedule: Q01DX001 (ip), vehicle: saline) 112 % of control; (endpoint: median survival time, dose: 3.8 grams/kg/injection, schedule: Q01DX001 (iv), vehicle: saline) 100 % of control; (endpoint: median survival time, dose: 3.8 grams/kg/injection, schedule: Q01DX005 (ip), vehicle: saline) 100 % of control; (endpoint: median survival time, dose: 3.8 grams/kg/injection, schedule: Q01DX005 (iv), vehicle: saline) 100 % of control; (endpoint: median survival time, dose: 3.8 grams/kg/injection, schedule: Q01DX009 (ip), vehicle: saline) 100 % of control. In addition, the T/C is 112 % of control (endpoint: median survival time, dose: 3.8 grams/kg/injection, schedule: Q03HX008 (ip), vehicle: saline); 112 % of control (endpoint: median survival time, dose: 3.8 grams/kg/injection, schedule: Q03HX016 (ip), vehicle: saline); 112 % of control (endpoint: median survival time, dose: 3.8 grams/kg/injection, schedule: Q03HX024 (ip), vehicle: saline); 106 % of control (endpoint: median survival time, dose: 3.8 grams/kg/injection, schedule: Q04DX003 (ip), vehicle: saline); 112 % of control (endpoint: median survival time, dose: 3.8 grams/kg/injection, schedule: Q04DX003 (iv), vehicle: saline); 106 % of control (endpoint: median survival time, dose: 3.8 grams/kg/injection, schedule: Q08DX002 (ip), vehicle: saline). The T/C (endpoint: median survival time, dose: 7.5 grams/kg/injection, schedule: Q01DX001 (ip), vehicle: saline) was 100 % of control; the T/C (endpoint: median survival time, dose: 7.5 grams/kg/injection, schedule: Q01DX001 (iv), vehicle: saline) is 100 % of control; the T/C (endpoint: median survival time, dose: 7.5 grams/kg/injection, schedule: Q01DX005 (ip), vehicle: saline) was 112 % of control; the T/C (endpoint: median survival time, dose: 7.5 grams/kg/injection, schedule: Q01DX005 (iv), vehicle: saline) is 106 % of control; the T/C (endpoint: median survival time, dose: 7.5 grams/kg/injection, schedule: Q01DX009 (ip), vehicle: saline) is 100 % of control; the T/C (endpoint: median survival time, dose: 7.5 grams/kg/injection, schedule: Q03HX008 (ip), vehicle: saline) was 112 % of control. Moreover, the T/C (endpoint: median survival time, dose: 7.5 grams/kg/injection, schedule: Q04DX003 (ip), vehicle: saline) is 100 % of control; the T/C (endpoint: median survival time, dose: 7.5 grams/kg/injection, schedule: Q04DX003 (iv), vehicle: saline) is 106 % of control; the T/C (endpoint: median survival time, dose: 7.5 grams/kg/injection, schedule: Q08DX002 (ip), vehicle: saline) was 112 % of control; the T/C (endpoint: median survival time, dose: 15.0 grams/kg/injection, schedule: Q01DX001 (ip), vehicle: saline) was 112 % of control; the T/C (endpoint: median survival time, dose: 15.0 grams/kg/injection, schedule: Q01DX009 (ip), vehicle: saline) is 118 % of control; the T/C (endpoint: median survival time, dose: 15.0 grams/kg/injection, schedule: Q04DX003 (ip), vehicle: saline) was 112 % of control. Besides, the T/C (endpoint: median survival time, dose: 15.0 grams/kg/injection, schedule: Q08DX002 (ip), vehicle: saline) was 106 % of control.
Take `COc1cccc(/C=C/C(=O)O)c1OC`: the T/C reads like this: under setting [4], 88 % of control; under setting [5], 88 % of control; under setting [6], 101 % of control; (endpoint: mean survival time, dose: 200.0 mg/kg/injection, schedule: Q01DX009 (ip), vehicle: water) 95 % of control; (endpoint: mean survival time, dose: 400.0 mg/kg/injection, schedule: Q01DX009 (ip), vehicle: water) 95 % of control.
On to `CSc1nc(Cl)c2cc(C)[nH]c2n1`, for which the T/C is, setting by setting: (endpoint: median survival time, dose: 50.0 mg/kg/injection, schedule: Q01DX005 (ip), vehicle: saline) 98 % of control; (endpoint: median survival time, dose: 100.0 mg/kg/injection, schedule: Q01DX005 (ip), vehicle: saline) 100 % of control; (endpoint: median survival time, dose: 200.0 mg/kg/injection, schedule: Q01DX005 (ip), vehicle: saline) 94 % of control.
For the compound `Cc1ccc(S(=O)(=O)OCC(OS(=O)(=O)c2ccc(C)cc2)C(O)C(O)C(O)CO)cc1` (stereo not given), the T/C runs as follows: under setting [1], 97 % of control; under setting [2], 91 % of control; under setting [3], 91 % of control.
Consider `N=c1c2ncn(C3OC(CO)C(O)C3O)c2ncn1Cc1ccc([N+](=O)[O-])cc1` (stereo not given), for which the T/C was 97 % of control (endpoint: mean survival time, dose: 100.0 mg/kg/injection, schedule: Q01DX001 (ip), vehicle: carboxymethylcellulose (CMC)); 104 % of control (endpoint: mean survival time, dose: 200.0 mg/kg/injection, schedule: Q01DX001 (ip), vehicle: carboxymethylcellulose (CMC)); 97 % of control (endpoint: mean survival time, dose: 400.0 mg/kg/injection, schedule: Q01DX001 (ip), vehicle: carboxymethylcellulose (CMC)).
`CCC1(CC)OC2=C(CC(C#N)(C#N)C(C#N)(C#N)C2)O1`: the T/C reads like this: (endpoint: mean survival time, dose: 5.0 mg/kg/injection, schedule: Q04DX003 (ip), vehicle: other) 103 % of control; (endpoint: mean survival time, dose: 10.0 mg/kg/injection, schedule: Q04DX003 (ip), vehicle: other) 92 % of control; (endpoint: mean survival time, dose: 20.0 mg/kg/injection, schedule: Q04DX003 (ip), vehicle: other) 96 % of control.
Turning to `Cc1cc(Cl)ccc1OCC(=O)Nc1nc(N)nc(N)n1`, the T/C was 105 % of control under setting [7]; 89 % of control under setting [1]; 102 % of control under setting [8]; 90 % of control under setting [2]; 100 % of control under setting [9]; 101 % of control under setting [3].
With `CSc1ncnc2c1nnn2C1OC(COC(=O)c2ccccc2)C(OC(=O)c2ccccc2)C1OC(=O)c1ccccc1` (stereo not given), the T/C is, setting by setting: (endpoint: median survival time, dose: 12.5 mg/kg/injection, schedule: Q01DX005 (ip), vehicle: Klucel (hydroxypropylcellulose) (HPC)) 94 % of control; (endpoint: median survival time, dose: 25.0 mg/kg/injection, schedule: Q01DX005 (ip), vehicle: Klucel (hydroxypropylcellulose) (HPC)) 104 % of control; (endpoint: median survival time, dose: 50.0 mg/kg/injection, schedule: Q01DX005 (ip), vehicle: Klucel (hydroxypropylcellulose) (HPC)) 116 % of control and 123 % of control; (endpoint: median survival time, dose: 100.0 mg/kg/injection, schedule: Q01DX005 (ip), vehicle: Klucel (hydroxypropylcellulose) (HPC)) 116 % of control; (endpoint: median survival time, dose: 400.0 mg/kg/injection, schedule: Q01DX005 (ip), vehicle: Klucel (hydroxypropylcellulose) (HPC)) 164 % of control.
For the compound `COc1ccc(C(=O)NN)cc1`, the T/C was 115 % of control (endpoint: mean survival time, dose: 25.0 mg/kg/injection, schedule: Q01DX009 (ip), vehicle: saline with Tween-80); 110 % of control (endpoint: mean survival time, dose: 50.0 mg/kg/injection, schedule: Q01DX009 (ip), vehicle: saline with Tween-80); 109 % of control under setting [7]; 101 % of control under setting [1].
As for `C/C(Cc1ccccc1)=N\O`, the T/C runs as follows: under setting [1], 103 % of control; under setting [2], 100 % of control; under setting [3], 114 % of control.
Regarding `CCOc1ccnc(OCC)n1`, the T/C under setting [1] is 105 % of control and the T/C under setting [2] was 102 % of control.
With `COc1cc2cc[n+](C)cc2cc1OC`, the T/C under setting [4] is 98 % of control, the T/C under setting [5] was 103 % of control and the T/C under setting [6] is 101 % of control.
As for `N#CCC(O)(/C=C/c1ccccc1)c1ccccc1` (stereo not given), the T/C is, setting by setting: under setting [7], 95 % of control; under setting [1], 97 % of control; under setting [8], 91 % of control; under setting [9], 89 % of control; under setting [3], 88 % of control.
For `CN/N=C1\CCC2(C)C(CCC3C4CCC(O)C4(C)CCC32)C1` (stereo not given), the T/C was 88 % of control (endpoint: mean survival time, dose: 12.5 mg/kg/injection, schedule: Q01DX009 (ip), vehicle: Klucel (hydroxypropylcellulose) (HPC)); 89 % of control (endpoint: mean survival time, dose: 25.0 mg/kg/injection, schedule: Q01DX009 (ip), vehicle: Klucel (hydroxypropylcellulose) (HPC)); 91 % of control and 105 % of control (endpoint: mean survival time, dose: 50.0 mg/kg/injection, schedule: Q01DX009 (ip), vehicle: Klucel (hydroxypropylcellulose) (HPC)).
